Several values for one entry are separate records, joined by “and”; a condition that tells them apart may be missing. Equal entries are not always repeated.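 Five concentrations, 48 hours, 96-well plates. GI50: concentration for 50% inhibition of growth. TGI: total growth inhibition.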
Key:
Experiment in all cases: NCI tumour cell line growth inhibition, 48 h
M19-MEL melanoma = test system: M19-MEL melanoma
HOP-18 NSCLC = test system: HOP-18 NSCLC
SNB-78 CNS = test system: SNB-78 CNS
DMS 114 small cell lung = test system: DMS 114 small cell lung
KM20L2 colon = test system: KM20L2 colon
DLD-1 colon = test system: DLD-1 colon
RXF-631 renal = test system: RXF-631 renal
MDA-N = test system: MDA-N
SN12K1 renal = test system: SN12K1 renal
P388/ADR leukemia = test system: P388/ADR leukemia
P388 leukemia = test system: P388 leukemia

SMILES | TGI (M19-MEL melanoma) | TGI (HOP-18 NSCLC) [µM] | TGI (SNB-78 CNS) | TGI (DMS 114 small cell lung) [µM] | TGI (KM20L2 colon) | TGI (DLD-1 colon) | TGI (RXF-631 renal) [µM] | TGI (MDA-N) | also measured
CN(C)CN(C)c1nc(N(C)C)nc(N(C)C)n1 | > 100 µM | > 100 | > 100 µM | > 100 | > 100 µM | > 100 µM |  |  | 
O=C(N[C@H]1CC2(C=C(I)C(=O)C(I)=C2)OC1=O)OCc1ccccc1 |  |  | 33.5 µM | 39.3 | 34.7 µM | 32.8 µM | 30.8 |  | 
NC(=O)N1N=C2c3ccccc3OC[C@H]2[C@@H]1c1ccccc1 | > 100 µM | > 100 | > 95.3 µM | 34.2 | 49.8 µM | > 100 µM |  |  | 
Cc1cn([C@H]2CN(O)C[C@@H](CO)O2)c(=O)[nH]c1=O |  |  |  |  |  |  |  | > 100 µM | 
O=C(Cn1ccnc1[N+](=O)[O-])NCc1ccc(F)cc1 | > 100 µM | > 100 |  | > 100 | > 100 µM |  | > 100 |  | 
O=C(NCCOC(=O)CCCCCCCCC(=O)OCCNC(=O)NC(=O)c1cn(Cc2ccccc2)c(=O)[nH]c1=O)NC(=O)c1cn(Cc2ccccc2)c(=O)[nH]c1=O | > 100 µM |  | > 100 µM | > 100 | > 100 µM | > 100 µM |  |  | 
Nc1cccc(C(=O)/C=C/c2ccccc2O)c1 | > 100 µM | > 100 | > 100 µM | > 100 | > 100 µM | > 100 µM |  |  | 
CCCCCCCC(=O)OC[n+]1cccc(-c2c(COC(=O)NC(C)C)c(COC(=O)NC(C)C)c3n2CCC3)c1 |  |  |  |  |  |  |  | > 100 µM | 
c1ccc2[nH]c(-c3cscn3)nc2c1 |  |  |  |  |  |  |  | > 100 µM | 
COc1cc([N+](=O)[O-])c(S(=O)(=O)O)cc1-[n+]1nc(C(=O)Nc2ccccc2)nn1-c1ccc([N+](=O)[O-])c(S(=O)(=O)[O-])c1 |  |  |  |  |  |  |  | > 100 µM | 
Cc1cc2nc3c(C(OC4OC(CO)C(O)C(O)C4O)C(O)CO)nn(-c4ccc(F)cc4)c3nc2cc1C (stereo not given) | > 100 µM |  | > 100 µM | > 100 | > 100 µM | > 100 µM | > 100 |  | 
CCCC/C=C1/CCC(CN(C)C)C1=O (stereo not given) | 3.05 µM | 5.56 | 5.21 µM | 3.92 | 5.59 µM | 2.16 µM | 3.27 | 5.2 µM | TGI (SN12K1 renal): 1.9 µM; TGI (P388/ADR leukemia): 0.396 µM; TGI (P388 leukemia): 0.366 µM
COc1cc2ccc(CC(=O)O)cc2cc1OC | > 100 µM | > 100 | > 100 µM | > 100 | > 100 µM | > 100 µM | > 100 |  | 
Fc1cccc(C2ON=C(c3ccccc3)N2C23CC4CC(CC(C4)C2)C3)c1 (stereo not given) |  |  |  |  |  |  |  | > 10 µM | 
Cc1ccc(-n2cc(/C(N)=N/O)c3ccccc3c2=O)cc1 | > 100 µM |  |  | > 100 | > 100 µM |  |  |  | 
O=S1(=O)CS(=O)(=O)OCCCCCO1 | > 100 µM | > 100 | > 100 µM | > 100 | > 100 µM | > 100 µM | > 100 |  | 
NCC[PH+](c1ccccc1)c1ccccc1.NCC[PH+](c1ccccc1)c1ccccc1.[Cl-].[Pt+4] |  |  |  |  |  |  |  | > 100 µM | GI50 (MDA-N): > 100 µM
CC(=O)O[C@H]1C(=O)[C@@]2(C)C([C@H](OC(=O)c3ccccc3)[C@]3(O)C[C@H](OC(=O)[C@H](O)[C@@H](NC(=O)c4ccc(Cl)cc4)c4ccccc4)C(C)=C1C3(C)C)C1(OC(C)=O)CO[C@@H]1C[C@@H]2O (stereo not given in full) | 14.1 µM |  |  |  | > 100 µM | > 100 µM |  | 0.0195 µM | 
O=C(CC/C(CC(=O)c1ccc(Cl)cc1)=N\O)Nc1cccc(Cl)c1 | > 100 µM |  | > 100 µM | > 100 | > 100 µM | > 100 µM |  |  | 
COc1ccc2cc1Oc1ccc(cc1)CC1c3c(cc(OC)c4c3Oc3cc5c(cc3O4)CCNC5C2)CCN1C (stereo not given) |  |  |  |  |  |  |  | 3.43 µM and 3.49 µM | GI50 (MDA-N): 1.95 µM
Cc1ccccc1NC(=O)C(=O)CC(=O)c1sc(-n2nc(-c3ccccc3)cc2-c2ccccc2)nc1C | > 100 µM |  | > 100 µM | > 100 | > 100 µM | > 100 µM | > 100 |  | 
c1ccc2c(c1)n1nnnc1c1nnnn21 | > 100 µM |  | > 100 µM | > 100 | > 100 µM | > 100 µM | > 100 |  | 
Clc1ccc(/C=C/c2csnn2)cc1 | > 100 µM | > 100 | > 100 µM | > 100 | > 100 µM | > 100 µM |  |  | 
Cc1cccc(NC(=O)CSc2nnc(-c3ccc(N=Cc4ccc(Cl)cc4)cc3)o2)c1 | > 100 µM | > 100 | > 100 µM | > 100 | > 100 µM |  |  |  | 
COc1cc2c(c(OC)c1OC)-c1ccc(SC)c(=O)cc1C(CC(=O)Oc1ccccc1F)C2 (stereo not given) | > 7.5 µM |  | > 7.5 µM | 0.0438 | 0.0252 µM | > 7.5 µM |  |  | 
CC1(O)CC2C(CC1SCc1ccccc1)C2(C)C (stereo not given) | 57.8 µM and > 100 µM |  | > 100 µM and 34.9 µM | 33.1 | 59.4 µM and 35.9 µM | > 100 µM and 30.2 µM |  |  | GI50 (M19-MEL melanoma): 26.2 µM and > 100 µM; GI50 (SNB-78 CNS): 76.7 µM and 17.9 µM; GI50 (DLD-1 colon): 42.4 µM and 16.6 µM

SMILES | TGI (M19-MEL melanoma) | TGI (HOP-18 NSCLC) [µM] | TGI (SNB-78 CNS) | TGI (DMS 114 small cell lung) [µM] | TGI (KM20L2 colon) | TGI (DLD-1 colon) | TGI (RXF-631 renal) [µM] | TGI (MDA-N) | also measured
Cc1cc(N(CCC#N)CCC#N)ccc1/C=C1N=C(/C=C\c2ccccc2)N(c2ccc(C(=O)O)cc2)C\1=O | > 100 µM | > 100 | > 100 µM | > 100 | > 100 µM | > 100 µM | > 100 |  | 
CSc1ccc2c(c1)N(CCCN(C)C)c1ccccc1S2 |  |  |  |  |  |  |  | 23.9 µM | 
C=C(/C=C/C=C(\CO)CCC=C(C)C)[C@H]1CCC2([C@H](CCCO)/C(=C(/C)C=O)CC[C@]2(C)O)[C@H]1O (stereo not given in full) | > 100 µM | > 100 | > 100 µM | > 100 | > 100 µM | > 100 µM |  |  | 
O=C(Nc1c(Cl)cc([N+](=O)[O-])cc1Cl)C(=O)C(C(=O)c1ccncc1)C1OC(=O)c2ccccc21 (stereo not given) | > 100 µM | > 100 | > 100 µM | > 100 | > 100 µM | > 100 µM | > 100 |  | 
O=C([CH-]C(=O)c1ccccc1)c1ccccc1.[CH2-]C.[CH2-]C.[Tl+3] |  | > 100 |  |  | > 100 µM |  |  |  | GI50 (HOP-18 NSCLC): 28.5 µM; GI50 (KM20L2 colon): 27.4 µM
O=C1Cc2c([nH]c3ccccc23)-c2cc(Br)ccc2N1 | > 100 µM | > 100 | > 100 µM | > 100 | > 100 µM | > 100 µM | > 100 |  | 
COc1cc([C@H]2c3cc4c(cc3[C@H](NCc3ccc(F)cc3)C3COC(=O)[C@H]32)OCO4)cc(OC)c1O (stereo not given in full) | 23.4 µM | > 100 | 78 µM | 18.7 | 15.8 µM | > 100 µM | 14.3 |  | 
CC1(C)O[C@@H](CCl)C[C@@H](C#N)O1 | > 100 µM | > 100 | > 100 µM | > 100 | > 100 µM | > 100 µM |  |  | 
CC(=O)OCCc1cc2ccccc2oc1=O |  |  |  |  |  |  |  | > 100 µM | 
CC(C)OC(=O)c1cc(NC(=S)OC(C)C)ccc1Cl |  |  |  |  |  |  |  | 50 µM | 
COc1ccc(C2NC(c3ccc(OC)cc3)C(C)C(=O)C2C)cc1 (stereo not given) | > 100 µM | > 100 | > 100 µM | > 100 | > 100 µM | > 100 µM | > 100 |  | 
Cc1nc(Nc2ccc(Cl)c(Cl)c2)sc1C(/C=C/c1ccc2c(c1)OCO2)=N/Nc1ccc([N+](=O)[O-])cc1[N+](=O)[O-] | > 100 µM | > 100 | 25.9 µM | > 100 | > 100 µM | > 100 µM |  | > 100 µM | 
COc1cc(OC)c(OC)cc1/C=C\c1ccnc2ccccc12 | > 100 µM |  | > 100 µM |  | 6.86 µM | > 100 µM |  | 0.791 µM | 
COc1ccc(S(=O)(=O)NNS(C)(=O)=O)cc1OC | > 100 µM |  |  |  | > 100 µM | > 100 µM |  |  | 
NC(=O)C1C(=O)Oc2cccnc21 (stereo not given) | > 100 µM | > 100 |  | > 100 | > 100 µM | > 100 µM |  |  | 
CCOC(=O)c1cnc2c(ccc3ncccc32)c1OCC | > 100 µM | > 100 | > 100 µM | > 100 | > 100 µM | > 100 µM | > 100 |  | 
C=C1CCC2C(C)(CO)C(O)CCC2(C)C1C/C=C1\C(=O)OCC1O (stereo not given) |  |  |  |  |  |  |  | 55.1 µM | 
COc1ccc(N=C2C(=O)Nc3ccc(Br)cc32)cc1 |  |  |  |  |  |  |  | 30.3 µM | 
O=C(/C=N/O)Nc1cccc(Cl)c1I | > 100 µM |  |  | 79.2 | > 100 µM | > 100 µM |  |  | 
Cc1cc(=O)[nH]c2c1C(=O)c1c(C)cc(=O)n(C)c1C2=O |  |  |  |  |  |  |  | 0.0331 µM | 
COc1ccc(/C(C#N)=C2/O/C(=N/N)C(c3ccc(OC)c(OC)c3)C2=O)cc1OC (stereo not given) | > 100 µM |  | > 100 µM |  | > 100 µM | > 100 µM |  |  | 
N#CC(C#N)=C/C=C/c1ccccc1[N+](=O)[O-] |  |  |  |  |  |  |  | 6.29 µM | 
CNC(=O)N(CCCCC(NC(C)=O)C(=O)NCc1ccccc1)Cc1ccccc1 (stereo not given) | > 100 µM |  | > 100 µM | > 100 | > 100 µM | > 100 µM | > 100 |  | 
COc1cc(COC(=O)N(C)[C@@H](Cc2ccccc2)C(=O)O)c([N+](=O)[O-])cc1OC |  |  |  |  |  |  |  | > 100 µM | 
Cc1c(C(=O)/C=C/c2ccc3c(c2)OCO3)[n+](=O)c2ccccc2n1[O-] | > 100 µM | > 100 | > 100 µM | 48.8 | 48.3 µM | > 100 µM | > 100 |  | 
CN(C)CC(=O)N1CCc2c([nH]c3ccccc23)C1c1cccnc1 (stereo not given) | > 100 µM | > 100 | > 100 µM | > 100 | > 100 µM | > 100 µM | > 100 |  | 
